Reference: US8796470B2 (AbbVie Inc., priority 2010, dated 2014)

Biological target: T1, human Cav2.2 (Homo sapiens, UniProt Q00975)
T1 construct: IMR32 cells endogenously expressing human Cav2.2; endogenous in cells; host or cells: IMR32 cells (human neuroblastoma)
Assay: Assessment of calcium channel activity using FLIPR (Ca2+ influx in IMR32 cells)
Format: cell-based
Settings: IMR32 cells endogenously expressing human Cav2.2, Calcium 4 dye, 60 minute pre-incubation, 2 μM nifedipine, depolarized with 80 mM KCl, 5 mM CaCl2
Method: (i) In Vitro Methods—Assessment of Calcium Channel Activity Using FLIPR:
IMR32 cells endogenously expressing human Cav2.2 were assayed for Ca^2+ influx using a no-wash calcium indicator dye (Calcium 4 dye: Molecular Probes) and FLIPR technology (Lubin, M. L.; Reitz, T. L.; Todd, M. J.; Flores, C. M.; Qin, N.; Xin, H. Assay and Drug Development Technologies 2006, 4(6), 689-694.). The IMR32 cells were maintained in MEM media containing 10% (v/v) FBS, 1% (v/v) antibiotic/antimitotic, 1% (v/v) sodium pyruvate and 1% (v/v) MEM NEAA. Following dissociation in 0.05% (v/v) trypsin/EDTA, cells were seeded into black 1×96-well plates (Corning Cellbind) at a density of 1−1.2×10^5 cells/well and incubated in the maintenance media above for 48 hours at 37° C. Immediately prior to performing the assay the media was removed and cells were loaded for 1.5 hours with 1×Calcium 4 dye prepared in HBSS (137 mM NaCl, 5.4 mM KCl, 0.25 mM Na2HPO4, 0.44 mM KH2PO4, 1.3 mM CaCl2, 1 mM MgSO4, 4.2 mM NaHCO3) containing HEPES pH 7.4 at room temperature. After dye loading and a subsequent 60 minute pre-incubation with compounds (full log dilutions from 10 μM to 0.1 nM) in the presence of 1.3 mM CaCl2 and 2 μM nifedipine to block endogenous L-type channels, the external Ca^2+ concentration was increased to 5 mM CaCl2 and the cells concomitantly depolarized with 80 mM KCl to assay channel activity. To determine the IC50 values, the percent inhibition of the compound at each concentration was determined relative to the activity in the absence of inhibitor, and data was fitted using non-linear regression sigmoidal dose response curve analysis with GraphPad Prism®.

T1 sequence (Q00975 whole entry): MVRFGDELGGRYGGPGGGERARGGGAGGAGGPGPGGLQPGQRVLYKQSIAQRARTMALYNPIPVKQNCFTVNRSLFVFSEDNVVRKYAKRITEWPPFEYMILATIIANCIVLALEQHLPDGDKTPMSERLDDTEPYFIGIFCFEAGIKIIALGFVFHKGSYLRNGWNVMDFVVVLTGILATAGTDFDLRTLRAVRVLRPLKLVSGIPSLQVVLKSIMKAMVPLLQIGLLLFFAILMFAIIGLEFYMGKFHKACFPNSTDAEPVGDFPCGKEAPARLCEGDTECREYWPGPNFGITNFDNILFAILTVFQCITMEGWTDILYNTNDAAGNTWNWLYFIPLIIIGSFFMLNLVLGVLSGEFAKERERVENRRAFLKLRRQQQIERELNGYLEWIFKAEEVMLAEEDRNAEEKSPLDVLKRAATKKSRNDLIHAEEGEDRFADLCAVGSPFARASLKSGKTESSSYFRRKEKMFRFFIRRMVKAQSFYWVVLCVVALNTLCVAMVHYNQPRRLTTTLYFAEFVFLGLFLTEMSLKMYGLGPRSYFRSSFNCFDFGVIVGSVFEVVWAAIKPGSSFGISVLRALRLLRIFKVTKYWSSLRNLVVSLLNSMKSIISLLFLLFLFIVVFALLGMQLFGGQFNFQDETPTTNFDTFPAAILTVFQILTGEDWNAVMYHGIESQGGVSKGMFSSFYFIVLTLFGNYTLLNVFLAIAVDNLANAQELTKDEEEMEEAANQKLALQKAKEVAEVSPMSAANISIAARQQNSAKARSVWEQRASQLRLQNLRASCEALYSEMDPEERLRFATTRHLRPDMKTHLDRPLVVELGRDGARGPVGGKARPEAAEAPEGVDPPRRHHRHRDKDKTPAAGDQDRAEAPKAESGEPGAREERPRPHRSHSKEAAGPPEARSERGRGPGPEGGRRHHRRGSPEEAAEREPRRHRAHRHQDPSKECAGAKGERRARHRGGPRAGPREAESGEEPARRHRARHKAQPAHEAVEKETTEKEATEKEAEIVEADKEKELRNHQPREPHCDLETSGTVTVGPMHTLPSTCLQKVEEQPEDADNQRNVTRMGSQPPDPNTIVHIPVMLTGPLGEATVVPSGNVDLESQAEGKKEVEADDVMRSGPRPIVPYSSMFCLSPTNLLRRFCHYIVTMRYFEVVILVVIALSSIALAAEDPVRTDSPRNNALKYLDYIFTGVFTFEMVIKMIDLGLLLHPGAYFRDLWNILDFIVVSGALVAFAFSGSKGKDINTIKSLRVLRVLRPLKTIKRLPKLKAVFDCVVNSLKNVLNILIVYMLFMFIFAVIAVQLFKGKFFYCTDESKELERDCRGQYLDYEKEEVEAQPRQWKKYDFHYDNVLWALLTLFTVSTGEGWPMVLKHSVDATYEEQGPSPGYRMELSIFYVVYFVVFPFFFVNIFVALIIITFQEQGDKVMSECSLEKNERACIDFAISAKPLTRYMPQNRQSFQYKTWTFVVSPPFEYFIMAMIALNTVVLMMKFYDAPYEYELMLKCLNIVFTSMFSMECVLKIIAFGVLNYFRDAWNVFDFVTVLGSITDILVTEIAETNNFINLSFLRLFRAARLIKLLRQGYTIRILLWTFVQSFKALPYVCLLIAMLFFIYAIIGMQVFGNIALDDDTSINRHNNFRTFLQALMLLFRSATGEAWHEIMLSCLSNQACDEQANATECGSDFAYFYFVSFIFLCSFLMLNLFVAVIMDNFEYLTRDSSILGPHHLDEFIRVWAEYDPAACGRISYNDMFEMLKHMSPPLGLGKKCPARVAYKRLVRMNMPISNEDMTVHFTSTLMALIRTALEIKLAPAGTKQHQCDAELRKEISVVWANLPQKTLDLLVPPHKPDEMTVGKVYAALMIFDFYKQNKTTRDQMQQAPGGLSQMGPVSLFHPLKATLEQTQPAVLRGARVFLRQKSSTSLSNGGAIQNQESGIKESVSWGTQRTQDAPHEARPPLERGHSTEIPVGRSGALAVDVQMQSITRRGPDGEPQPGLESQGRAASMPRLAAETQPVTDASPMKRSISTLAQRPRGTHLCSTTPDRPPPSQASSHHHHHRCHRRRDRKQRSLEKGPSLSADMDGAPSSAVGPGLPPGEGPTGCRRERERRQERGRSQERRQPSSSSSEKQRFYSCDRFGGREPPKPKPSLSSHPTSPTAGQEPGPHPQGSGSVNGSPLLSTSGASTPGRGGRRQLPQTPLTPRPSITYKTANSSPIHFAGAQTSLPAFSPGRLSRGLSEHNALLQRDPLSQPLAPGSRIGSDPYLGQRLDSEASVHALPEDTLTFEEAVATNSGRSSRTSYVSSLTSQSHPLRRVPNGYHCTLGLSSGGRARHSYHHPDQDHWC
T1 sequence (P54289 25-956 partner limits assumed): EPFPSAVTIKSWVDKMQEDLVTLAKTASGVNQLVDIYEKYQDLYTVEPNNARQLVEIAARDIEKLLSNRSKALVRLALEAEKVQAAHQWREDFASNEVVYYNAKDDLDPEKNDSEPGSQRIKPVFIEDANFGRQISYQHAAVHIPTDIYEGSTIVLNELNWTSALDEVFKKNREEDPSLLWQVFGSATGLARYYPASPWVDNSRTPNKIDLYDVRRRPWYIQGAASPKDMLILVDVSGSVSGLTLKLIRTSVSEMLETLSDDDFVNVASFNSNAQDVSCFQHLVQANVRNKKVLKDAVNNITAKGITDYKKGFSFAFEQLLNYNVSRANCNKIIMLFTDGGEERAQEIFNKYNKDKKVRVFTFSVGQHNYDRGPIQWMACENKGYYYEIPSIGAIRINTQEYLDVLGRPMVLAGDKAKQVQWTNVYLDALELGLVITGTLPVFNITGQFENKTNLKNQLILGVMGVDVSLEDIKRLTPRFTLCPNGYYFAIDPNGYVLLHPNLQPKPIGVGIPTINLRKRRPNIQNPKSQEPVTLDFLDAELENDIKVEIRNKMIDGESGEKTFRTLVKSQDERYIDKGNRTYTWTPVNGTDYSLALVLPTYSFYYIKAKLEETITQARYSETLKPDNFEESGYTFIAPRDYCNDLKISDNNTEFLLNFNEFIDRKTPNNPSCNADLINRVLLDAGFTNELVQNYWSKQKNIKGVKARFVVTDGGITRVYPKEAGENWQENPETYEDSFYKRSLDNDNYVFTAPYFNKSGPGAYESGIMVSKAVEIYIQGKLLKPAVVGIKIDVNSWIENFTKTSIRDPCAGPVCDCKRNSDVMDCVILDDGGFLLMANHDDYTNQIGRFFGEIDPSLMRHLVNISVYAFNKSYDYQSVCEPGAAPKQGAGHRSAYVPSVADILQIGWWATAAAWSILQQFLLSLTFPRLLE
T1 sequence (P54289 957-1103 partner limits assumed): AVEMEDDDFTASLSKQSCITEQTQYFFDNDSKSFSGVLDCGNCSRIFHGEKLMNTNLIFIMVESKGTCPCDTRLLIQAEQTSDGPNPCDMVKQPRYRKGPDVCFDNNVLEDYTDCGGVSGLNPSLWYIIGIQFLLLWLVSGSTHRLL
T1 sequence (P54284 whole entry partner): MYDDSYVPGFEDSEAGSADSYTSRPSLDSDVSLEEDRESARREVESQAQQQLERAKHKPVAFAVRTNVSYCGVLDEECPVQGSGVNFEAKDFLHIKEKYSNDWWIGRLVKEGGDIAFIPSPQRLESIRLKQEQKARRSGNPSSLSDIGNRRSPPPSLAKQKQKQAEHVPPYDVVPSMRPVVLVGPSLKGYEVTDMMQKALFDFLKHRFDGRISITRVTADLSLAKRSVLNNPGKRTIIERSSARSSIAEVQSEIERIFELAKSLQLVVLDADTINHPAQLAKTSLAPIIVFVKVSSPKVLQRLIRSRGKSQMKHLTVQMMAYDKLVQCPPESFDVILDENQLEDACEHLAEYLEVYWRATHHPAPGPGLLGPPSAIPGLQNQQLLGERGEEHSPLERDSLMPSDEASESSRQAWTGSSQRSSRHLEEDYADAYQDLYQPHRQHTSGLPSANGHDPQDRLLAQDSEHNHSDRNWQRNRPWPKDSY

IC50 [µM]	SMILES
8.05	Fc1cccc(CO[C@H]2CC[C@@H]3CN(c4cccc(C(F)(F)F)n4)C[C@@H]32)c1 [Example 45, (3aR,4S,6aS)-4-[(3-fluorobenzyl)oxy]-2-[6-(trifluoromethyl)pyridin-2-yl]octahydrocyclopenta[c]pyrrole]
8.41	Fc1cccc(CCO[C@H]2CC[C@@H]3CN(c4cccc(C(F)(F)F)n4)C[C@@H]32)c1 [Example 46]
8.83	O[C@]1(c2ccccc2)CC[C@@H]2CN(Cc3ccccc3)C[C@@H]21 [Example 47, (3aR,4R,6aS)-2-benzyl-4-phenyloctahydrocyclopenta[c]pyrrol-4-ol]
2.95	Fc1cccc(O[C@H]2CC[C@@H]3CN(Cc4ccccc4)C[C@@H]32)c1 [Example 48, (3aR,4S,6aS)-2-benzyl-4-(3-fluorophenoxy)octahydrocyclopenta[c]pyrrole]
24.9	C=C1CC[C@@H]2CN(c3cccc(C(F)(F)F)n3)C[C@H]12 [Example 49, (3aS,6aS)-4-methylene-2-[6-(trifluoromethyl)pyridin-2-yl]octahydrocyclopenta[c]pyrrole]

More lines, now with the values behind:

SMILES	IC50 [µM]
C[C@@]1(O)CC[C@@H]2CN(c3cccc(C(F)(F)F)n3)C[C@@H]21 [Example 33, (3aR,4R,6aS)-4-methyl-2-[6-(trifluoromethyl)pyridin-2-yl]octahydrocyclopenta[c]pyrrol-4-ol]	8.34
CC(C)[C@@]1(O)CC[C@@H]2CN(c3cccc(C(F)(F)F)n3)C[C@@H]21 [Example 34, (3aR,4S,6aS)-4-isopropyl-2-[6-(trifluoromethyl)pyridin-2-yl]octahydrocyclopenta[c]pyrrol-4-ol]	3.05
O[C@]1(c2ccccc2)CC[C@@H]2CN(c3cccc(C(F)(F)F)n3)C[C@@H]21 [Example 35, (3aR,4R,6aS)-4-phenyl-2-[6-(trifluoromethyl)pyridin-2-yl]octahydrocyclopenta[c]pyrrol-4-ol]	2.87
O[C@]1(c2cccc(F)c2)CC[C@@H]2CN(c3cccc(C(F)(F)F)n3)C[C@@H]21 [Example 36, (3aR,4R,6aS)-4-(3-fluorophenyl)-2-[6-(trifluoromethyl)pyridin-2-yl]octahydrocyclopenta[c]pyrrol-4-ol]	6.13
O[C@]1(Cc2ccc(F)c(F)c2)CC[C@@H]2CN(c3cccc(C(F)(F)F)n3)C[C@@H]21 [Example 37, (3aR,4S,6aS)-4-(3,4-difluorobenzyl)-2-[6-(trifluoromethyl)pyridin-2-yl]octahydrocyclopenta[c]pyrrol-4-ol]	3.72
CC(c1cccc(F)c1)[C@@]1(O)CC[C@@H]2CN(c3cccc(C(F)(F)F)n3)C[C@@H]21 (stereo partly drawn) [Example 38, (3aR,4S,6aS)-4-[1-(3-fluorophenyl)ethyl]-2-[6-(trifluoromethyl)pyridin-2-yl]octahydrocyclopenta[c]pyrrol-4-ol]	6.1
CO[C@H]1CC[C@@H]2CN(c3cccc(C(F)(F)F)n3)C[C@@H]21 [Example 40, (3aR,4S,6aS)-4-methoxy-2-[6-(trifluoromethyl)pyridin-2-yl]octahydrocyclopenta[c]pyrrole]	3.37
CCO[C@H]1CC[C@@H]2CN(c3cccc(C(F)(F)F)n3)C[C@@H]21 [Example 41, (3aR,4S,6aS)-4-ethoxy-2-[6-(trifluoromethyl)pyridin-2-yl]octahydrocyclopenta[c]pyrrole]	3.32
CC(C)O[C@H]1CC[C@@H]2CN(c3cccc(C(F)(F)F)n3)C[C@@H]21 [Example 42, (3aR,4S,6aS)-4-isopropoxy-2-[6-(trifluoromethyl)pyridin-2-yl]octahydrocyclopenta[c]pyrrole]	3.82
CC(C)(C)O[C@H]1CC[C@@H]2CN(c3cccc(C(F)(F)F)n3)C[C@@H]21 [Example 43, (3aR,4S,6aS)-4-tert-butoxy-2-[6-(trifluoromethyl)pyridin-2-yl]octahydrocyclopenta[c]pyrrole]	2.54
Fc1cccc(O[C@H]2CC[C@@H]3CN(c4cccc(C(F)(F)F)n4)C[C@@H]32)c1 [Example 44, (3aR,4S,6aS)-4-(3-fluorophenoxy)-2-[6-(trifluoromethyl)pyridin-2-yl]octahydrocyclopenta[c]pyrrole]	6.01
